Source: PMC7026418, “The kinase polypharmacology landscape of clinical PARP inhibitors” (Scientific Reports, 2020)
Where two headings read alike, the source gives them in different places. Values belong to the compound of their own block, whether it stands above or below them.

Legend:
Experiment in all cases: biochemical
Parameters in all cases: DiscoveRx KINOMEscan active site-directed competition binding; percent of control kinase bound to immobilised ligand
EPHB4 = target: T1, EPHB4 (Homo sapiens, UniProt P54760)
T1 sequence (P54760 1-987): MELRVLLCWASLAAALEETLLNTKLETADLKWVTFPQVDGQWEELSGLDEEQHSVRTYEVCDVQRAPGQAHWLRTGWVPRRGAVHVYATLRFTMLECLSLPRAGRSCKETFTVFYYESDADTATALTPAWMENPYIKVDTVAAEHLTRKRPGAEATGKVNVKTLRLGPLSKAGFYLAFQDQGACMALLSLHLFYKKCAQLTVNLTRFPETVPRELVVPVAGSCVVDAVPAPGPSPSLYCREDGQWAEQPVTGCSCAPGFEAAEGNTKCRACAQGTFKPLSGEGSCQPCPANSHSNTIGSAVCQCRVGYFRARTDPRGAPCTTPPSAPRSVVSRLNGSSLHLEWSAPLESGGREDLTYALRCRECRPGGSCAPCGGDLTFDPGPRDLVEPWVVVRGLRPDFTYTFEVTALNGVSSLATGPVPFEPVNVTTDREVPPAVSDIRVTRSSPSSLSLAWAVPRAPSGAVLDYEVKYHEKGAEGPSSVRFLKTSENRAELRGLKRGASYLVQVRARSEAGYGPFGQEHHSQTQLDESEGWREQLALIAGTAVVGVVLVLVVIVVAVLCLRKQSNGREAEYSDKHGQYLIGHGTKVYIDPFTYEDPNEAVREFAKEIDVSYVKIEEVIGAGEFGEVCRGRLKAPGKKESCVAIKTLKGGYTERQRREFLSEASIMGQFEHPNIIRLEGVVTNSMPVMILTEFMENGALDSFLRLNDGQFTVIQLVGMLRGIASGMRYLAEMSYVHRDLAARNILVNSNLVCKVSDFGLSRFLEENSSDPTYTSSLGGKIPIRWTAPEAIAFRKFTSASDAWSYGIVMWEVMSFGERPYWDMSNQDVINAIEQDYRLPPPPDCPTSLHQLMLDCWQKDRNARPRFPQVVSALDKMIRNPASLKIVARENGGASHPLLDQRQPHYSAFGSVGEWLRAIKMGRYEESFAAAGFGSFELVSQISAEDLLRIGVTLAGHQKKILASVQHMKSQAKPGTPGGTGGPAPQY

p38-beta = target: T2, p38-beta (Homo sapiens, UniProt Q15759)
T2 construct: gene MAPK11
T2 sequence (Q15759 whole entry): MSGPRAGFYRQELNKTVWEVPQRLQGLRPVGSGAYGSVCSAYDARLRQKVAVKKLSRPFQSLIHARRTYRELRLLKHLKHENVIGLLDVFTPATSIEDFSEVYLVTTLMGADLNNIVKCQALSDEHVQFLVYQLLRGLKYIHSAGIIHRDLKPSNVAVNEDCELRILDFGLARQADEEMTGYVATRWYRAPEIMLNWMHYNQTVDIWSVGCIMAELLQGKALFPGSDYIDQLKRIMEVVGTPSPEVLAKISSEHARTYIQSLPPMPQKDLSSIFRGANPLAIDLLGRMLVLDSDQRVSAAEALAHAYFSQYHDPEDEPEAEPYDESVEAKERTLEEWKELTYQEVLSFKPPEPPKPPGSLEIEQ

PRKD3 = target: T3, PRKD3 (Homo sapiens, UniProt O94806)
T3 sequence (O94806 1-890): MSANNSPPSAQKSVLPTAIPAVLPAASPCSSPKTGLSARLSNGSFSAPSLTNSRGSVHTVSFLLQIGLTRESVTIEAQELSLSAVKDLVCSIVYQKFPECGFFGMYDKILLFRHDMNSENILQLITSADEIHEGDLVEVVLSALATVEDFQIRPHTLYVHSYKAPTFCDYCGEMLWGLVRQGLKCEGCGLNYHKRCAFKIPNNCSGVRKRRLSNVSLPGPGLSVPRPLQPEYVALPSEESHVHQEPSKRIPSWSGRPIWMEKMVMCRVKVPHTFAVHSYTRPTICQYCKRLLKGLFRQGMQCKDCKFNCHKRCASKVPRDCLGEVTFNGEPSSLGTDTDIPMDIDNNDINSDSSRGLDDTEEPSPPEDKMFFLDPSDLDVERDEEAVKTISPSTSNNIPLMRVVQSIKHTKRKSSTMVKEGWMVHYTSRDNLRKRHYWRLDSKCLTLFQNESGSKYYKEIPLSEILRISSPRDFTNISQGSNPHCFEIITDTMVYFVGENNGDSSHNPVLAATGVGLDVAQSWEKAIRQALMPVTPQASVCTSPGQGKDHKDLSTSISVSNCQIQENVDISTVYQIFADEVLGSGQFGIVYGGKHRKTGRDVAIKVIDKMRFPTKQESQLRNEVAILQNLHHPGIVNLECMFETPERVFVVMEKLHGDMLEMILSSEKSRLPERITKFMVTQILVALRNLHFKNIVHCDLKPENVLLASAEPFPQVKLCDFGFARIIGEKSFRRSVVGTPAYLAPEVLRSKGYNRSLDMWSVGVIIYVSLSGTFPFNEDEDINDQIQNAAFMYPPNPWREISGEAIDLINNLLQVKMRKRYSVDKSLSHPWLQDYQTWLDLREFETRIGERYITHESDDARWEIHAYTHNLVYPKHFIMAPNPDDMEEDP

BRAF = BRAF (Homo sapiens, UniProt P15056)
Sequence of BRAF (P15056 whole entry): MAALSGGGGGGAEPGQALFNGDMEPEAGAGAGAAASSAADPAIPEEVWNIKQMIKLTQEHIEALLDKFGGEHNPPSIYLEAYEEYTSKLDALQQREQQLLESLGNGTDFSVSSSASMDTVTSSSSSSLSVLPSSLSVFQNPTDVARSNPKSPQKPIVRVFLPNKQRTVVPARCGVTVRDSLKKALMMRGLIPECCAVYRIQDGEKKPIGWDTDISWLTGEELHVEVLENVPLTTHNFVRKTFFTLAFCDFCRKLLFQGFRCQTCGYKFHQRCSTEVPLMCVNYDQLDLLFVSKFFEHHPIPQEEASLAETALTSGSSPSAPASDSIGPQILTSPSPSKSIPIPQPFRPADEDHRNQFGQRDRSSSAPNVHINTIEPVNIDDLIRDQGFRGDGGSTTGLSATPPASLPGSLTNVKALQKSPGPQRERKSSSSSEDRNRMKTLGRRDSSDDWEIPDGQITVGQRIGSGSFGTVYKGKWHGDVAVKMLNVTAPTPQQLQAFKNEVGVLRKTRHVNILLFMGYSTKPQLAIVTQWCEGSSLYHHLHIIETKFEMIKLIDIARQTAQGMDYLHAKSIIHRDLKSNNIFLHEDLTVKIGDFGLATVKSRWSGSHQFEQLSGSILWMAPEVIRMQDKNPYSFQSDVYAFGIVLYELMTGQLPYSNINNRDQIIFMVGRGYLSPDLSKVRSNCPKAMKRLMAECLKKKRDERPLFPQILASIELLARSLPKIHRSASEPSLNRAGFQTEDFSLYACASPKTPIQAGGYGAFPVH

MST1 = target: T4, MST1 (Homo sapiens, UniProt Q13043)
T4 construct: gene STK4
T4 sequence (Q13043 1-487): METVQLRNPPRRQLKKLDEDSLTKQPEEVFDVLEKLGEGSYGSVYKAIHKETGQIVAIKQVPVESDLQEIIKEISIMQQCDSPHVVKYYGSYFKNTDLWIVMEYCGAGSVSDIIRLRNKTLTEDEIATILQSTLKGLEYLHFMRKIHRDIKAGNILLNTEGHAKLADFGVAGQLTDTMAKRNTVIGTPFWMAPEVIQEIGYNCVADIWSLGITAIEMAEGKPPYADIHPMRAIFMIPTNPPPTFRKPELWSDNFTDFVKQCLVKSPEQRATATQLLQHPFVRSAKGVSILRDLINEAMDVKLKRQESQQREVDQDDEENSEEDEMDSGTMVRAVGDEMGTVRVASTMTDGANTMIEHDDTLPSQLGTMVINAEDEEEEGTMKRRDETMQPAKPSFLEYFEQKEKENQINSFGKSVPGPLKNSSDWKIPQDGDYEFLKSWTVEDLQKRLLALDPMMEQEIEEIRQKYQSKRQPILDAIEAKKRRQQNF

ACVR2B = ACVR2B (Homo sapiens, UniProt Q13705)
Sequence of ACVR2B (Q13705 whole entry): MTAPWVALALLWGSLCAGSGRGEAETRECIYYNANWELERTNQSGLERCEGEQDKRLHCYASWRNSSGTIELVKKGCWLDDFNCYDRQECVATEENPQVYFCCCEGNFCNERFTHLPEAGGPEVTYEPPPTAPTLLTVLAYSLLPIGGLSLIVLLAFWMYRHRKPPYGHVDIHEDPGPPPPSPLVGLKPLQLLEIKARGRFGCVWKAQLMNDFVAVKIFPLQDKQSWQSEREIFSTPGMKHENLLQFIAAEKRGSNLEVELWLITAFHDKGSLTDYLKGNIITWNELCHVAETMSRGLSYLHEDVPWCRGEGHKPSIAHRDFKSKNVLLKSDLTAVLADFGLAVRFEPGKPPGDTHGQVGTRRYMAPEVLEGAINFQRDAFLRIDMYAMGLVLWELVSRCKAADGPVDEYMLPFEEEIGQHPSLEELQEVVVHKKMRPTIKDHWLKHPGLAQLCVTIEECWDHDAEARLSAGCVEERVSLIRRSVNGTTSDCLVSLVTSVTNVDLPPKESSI

SLK = SLK (Homo sapiens, UniProt Q9H2G2)
Sequence of SLK (Q9H2G2 whole entry): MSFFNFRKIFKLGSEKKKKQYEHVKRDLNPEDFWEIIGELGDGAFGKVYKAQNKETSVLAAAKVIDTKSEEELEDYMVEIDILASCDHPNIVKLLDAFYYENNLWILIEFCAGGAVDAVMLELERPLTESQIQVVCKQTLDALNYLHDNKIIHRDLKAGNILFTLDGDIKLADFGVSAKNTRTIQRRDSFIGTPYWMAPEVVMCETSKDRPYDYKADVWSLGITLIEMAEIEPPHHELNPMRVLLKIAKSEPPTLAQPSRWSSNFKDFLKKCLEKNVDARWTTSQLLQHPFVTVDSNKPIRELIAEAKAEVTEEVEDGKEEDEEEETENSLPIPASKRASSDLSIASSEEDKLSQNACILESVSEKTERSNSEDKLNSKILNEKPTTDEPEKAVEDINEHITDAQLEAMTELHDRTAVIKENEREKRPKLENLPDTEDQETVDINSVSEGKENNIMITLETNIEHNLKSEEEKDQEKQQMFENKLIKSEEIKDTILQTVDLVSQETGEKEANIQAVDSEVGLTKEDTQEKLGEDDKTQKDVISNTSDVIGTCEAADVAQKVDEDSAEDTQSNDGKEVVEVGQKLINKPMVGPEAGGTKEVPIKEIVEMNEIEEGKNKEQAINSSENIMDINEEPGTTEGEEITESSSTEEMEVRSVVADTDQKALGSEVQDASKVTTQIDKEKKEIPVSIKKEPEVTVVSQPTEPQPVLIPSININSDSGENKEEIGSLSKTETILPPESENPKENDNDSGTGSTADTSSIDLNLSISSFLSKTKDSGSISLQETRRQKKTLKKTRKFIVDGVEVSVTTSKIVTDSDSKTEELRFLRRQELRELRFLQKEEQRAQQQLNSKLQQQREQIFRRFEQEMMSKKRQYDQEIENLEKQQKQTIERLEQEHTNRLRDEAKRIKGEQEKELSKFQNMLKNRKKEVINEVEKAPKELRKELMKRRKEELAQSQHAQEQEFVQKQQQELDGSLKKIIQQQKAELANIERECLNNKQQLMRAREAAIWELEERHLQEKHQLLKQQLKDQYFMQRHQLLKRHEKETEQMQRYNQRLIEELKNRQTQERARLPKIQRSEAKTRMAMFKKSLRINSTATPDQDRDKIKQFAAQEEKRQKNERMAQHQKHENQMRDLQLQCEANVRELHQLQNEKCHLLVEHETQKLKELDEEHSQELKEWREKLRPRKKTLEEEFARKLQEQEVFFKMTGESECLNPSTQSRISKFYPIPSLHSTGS

[1] = read-out: Niraparib (MK-4827) / %Ctrl @ 10000nM
[2] = read-out: Olaparib / %Ctrl @ 10000nM
[3] = read-out: Rucaparib / %Ctrl @ 10000nM, binding competition, % of control
[4] = read-out: Talazoparib (BMN 673) / %Ctrl @ 10000nM

SMILES: NC(=O)c1cccc2cn(-c3ccc([C@@H]4CCCNC4)cc3)nc12 [Niraparib]
percent of control binding at 10 µM (EPHB4; [1]): 91% | percent of control binding at 10 µM (p38-beta; [1]): 99% | percent of control binding at 10 µM (PRKD3; [1]): 76% | percent of control binding at 10 µM (BRAF; [1]): 95% | percent of control binding at 10 µM (MST1; [1]): 87% | percent of control binding at 10 µM (ACVR2B; [1]): 100% | percent of control binding at 10 µM (SLK; [1]): 92%

percent of control binding at 10 µM (EPHB4; [2]): 90% | percent of control binding at 10 µM (p38-beta; [2]): 90% | percent of control binding at 10 µM (PRKD3; [2]): 83% | percent of control binding at 10 µM (BRAF; [2]): 76% | percent of control binding at 10 µM (MST1; [2]): 97% | percent of control binding at 10 µM (ACVR2B; [2]): 100% | percent of control binding at 10 µM (SLK; [2]): 100%
SMILES: O=C(c1cc(Cc2n[nH]c(=O)c3ccccc23)ccc1F)N1CCN(C(=O)C2CC2)CC1 [Olaparib]

percent of control binding at 10 µM (EPHB4; [3]): 95% | percent of control binding at 10 µM (p38-beta; [3]): 93% | percent of control binding at 10 µM (PRKD3; [3]): 78% | percent of control binding at 10 µM (BRAF; [3]): 66% | percent of control binding at 10 µM (MST1; [3]): 85% | percent of control binding at 10 µM (ACVR2B; [3]): 100% | percent of control binding at 10 µM (SLK; [3]): 98%
SMILES: CNCc1ccc(-c2[nH]c3cc(F)cc4c3c2CCNC4=O)cc1 [Rucaparib]

percent of control binding at 10 µM (EPHB4; [4]): 100% | percent of control binding at 10 µM (p38-beta; [4]): 86% | percent of control binding at 10 µM (PRKD3; [4]): 89% | percent of control binding at 10 µM (BRAF; [4]): 67% | percent of control binding at 10 µM (MST1; [4]): 100% | percent of control binding at 10 µM (ACVR2B; [4]): 100% | percent of control binding at 10 µM (SLK; [4]): 90%
SMILES: Cn1ncnc1[C@H]1c2n[nH]c(=O)c3cc(F)cc(c23)N[C@@H]1c1ccc(F)cc1 [Talazoparib]
